Measured values taken from patent US20120190752A1, “EXO-S-MECAMYLAMINE METHOD, USE, AND COMPOUND FOR TREATMENT” (Targacept Inc., priority 2009, published 2012).

System: subjects with major depressive disorder (MDD) who were inadequate responders to citalopram
Test: HAMD-17 total score, Phase 2b trial of TC-5214 as add-on to citalopram
Format: in vivo, human
Text: The Hamilton Rating Scale for Depression (HRSD), also known as the Hamilton Depression Rating Scale (HDRS) or abbreviated to HAM-D or HAMD, is a multiple choice questionnaire that clinicians may use to rate the severity of a patient's major depression (Hamilton 1967). The questionnaire rates the severity of symptoms observed in depression such as low mood, insomnia, agitation, anxiety and weight loss. The questionnaire is presently one of the most commonly used scales for rating depression in medical research. The clinician chooses the possible responses to each question by interviewing the patient and by observing the patient's symptoms. Each question has multiple possible responses which increase in severity. Although Hamilton's original scale had 17 questions, others later developed HRSD scales with different numbers of questions, the greatest of which is 29 (HRSD-29). Clinicians can use the HRSD in place of, or in conjunction with, the Montgomery-Åsberg Depression Rating Scale (MADRS), the Beck Depression Inventory (BDI), the Zung Self-Rating Depression Scale, the Wechsler Depression Rating Scale, the […] Depression Rating Scale, the Inventory of Depressive Symptomatology (IDS), the Quick Inventory of Depressive Symptomatology (QIDS), and other questionnaires. […] The results on all of the trial's secondary efficacy measures, including assessments of depression, irritability, disability, cognition, severity of illness and global improvement, were also statistically significant in favor of TC-5214 on an intent to treat basis. The Phase 2b trial of TC-5214 as an augmentation treatment for MDD was a two-phase trial conducted at 20 sites in India and three sites in the United States. In the first phase, 579 subjects with MDD received first-line treatment with citalopram hydrobromide for eight weeks, 20 mg daily for the first four weeks and 40 mg daily for the next four weeks. Citalopram, an approved treatment for MDD marketed in the United States as […]®, is from the drug class known as selective serotonin reuptake inhibitors. At the end of the eight weeks, subjects whose MADRS score had improved less than 50 percent and whose CGI-SI score was no lower than 4 were considered partial or non responders and randomized into the double blind second phase of the trial. In the double blind second phase, subjects continued their citalopram treatment and also received either add-on TC-5214 or add-on placebo for an additional eight weeks. The daily dosage of TC-5214 was initially 2 mg and could be increased at the discretion of the investigator to 4 mg and to 8 mg based on tolerability and therapeutic response. The primary outcome measure for the trial was mean change between TC-5214 and placebo from double blind baseline as measured by HAM-D at week 16. The intent to treat dataset included 265 subjects in the second phase. In more detail, a multi-center double-blind, randomized, placebo-controlled, parallel group, flexible dose titration study of TC-5214 as adjunctive therapy in subjects with major depressive disorder (MDD) who were inadequate responders to citalopram was conducted in centers in the US and India. The study consisted of a screening period, baseline/washout period, open-label phase, double-blind phase, and a follow-up visit. Subject participation in the study could continue for up to 16 weeks of treatment. Following a washout period of up to 28 days for other antidepressants, subjects with MDD and a MADRS total score >/=28 and a Clinical Global Impression-Severity (CGI-S) score >/=4 were enrolled on Day 1 into an open-label citalopram-only phase of the study. This phase lasted 8 weeks, with citalopram (CIT) dose increased from a once-daily dose of 20 mg (Day 1 through Week 4) to 40 mg (Week 4 through Week 8). A total of 579 subjects entered the open-label citalopram phase. […]

[1] = ITT and PP, at almost every assessment week, result in words
[2] = ITT, Double Blind Week 8 (Baseline), before TC-5214
[3] = ITT, Double Blind Week 18 (Follow-up)
[4] = ITT, Double Blind Week 18 LOCF (Follow-up)
[5] = ITT, Double Blind Week 18 LOCF (Follow-up), change from Week 16

## CNC1(C)C2CCC(C2)C1(C)C (stereo in doubt) [TC-5214, (S)—N,2,3,3-tetramethylnorbornan-2-amine]
ITT and PP populations, result in words
  HAMD-17 total score change from baseline compared with placebo: statistically significant decreases (improvements)
[1]
  HAMD responders (reduction from baseline ≧50%) proportion compared with placebo: higher proportion of responders
  HAMD-17 remission proportion compared with placebo: higher proportion of subjects in remission
[2]
  HAMD-17 total score, observed Mean: 23.5
  HAMD-17 total score, observed Median: 24.0
ITT, Double Blind Week 9
  HAMD-17 Remission (Score ≦7): Subjects with Remission (number): 1
  HAMD-17 Remission (Score ≦7): Subjects with Remission (percentage): (1%)
  HAMD-17 Remission (Score ≦7): Subjects without Remission (number): 132
  HAMD-17 Remission (Score ≦7): Subjects without Remission (percentage): (99%)
  HAMD-17 Remission (Score ≦10): Subjects with Remission (number): 4
  HAMD-17 Remission (Score ≦10): Subjects with Remission (percentage): (3%)
  HAMD-17 Remission (Score ≦10): Subjects without Remission (number): 129
  HAMD-17 Remission (Score ≦10): Subjects without Remission (percentage): (97%)
  HAMD-17 reduction from baseline ≧50%: Subjects with Response (number): 4
  HAMD-17 reduction from baseline ≧50%: Subjects with Response (percentage): (3%)
  HAMD-17 reduction from baseline ≧50%: Subjects without Response (number): 129
  HAMD-17 reduction from baseline ≧50%: Subjects without Response (percentage): (97%)
ITT, Double Blind Week 10
  HAMD-17 Remission (Score ≦7): Subjects with Remission (number): 6
  HAMD-17 Remission (Score ≦7): Subjects with Remission (percentage): (5%)
  HAMD-17 Remission (Score ≦7): Subjects without Remission (number): 127
  HAMD-17 Remission (Score ≦7): Subjects without Remission (percentage): (95%)
  HAMD-17 Remission (Score ≦10): Subjects with Remission (number): 20
  HAMD-17 Remission (Score ≦10): Subjects with Remission (percentage): (15%)
  HAMD-17 Remission (Score ≦10): Subjects without Remission (number): 113
  HAMD-17 Remission (Score ≦10): Subjects without Remission (percentage): (85%)
  HAMD-17 reduction from baseline ≧50%: Subjects with Response (number): 23
  HAMD-17 reduction from baseline ≧50%: Subjects with Response (percentage): (17%)
  HAMD-17 reduction from baseline ≧50%: Subjects without Response (number): 110
  HAMD-17 reduction from baseline ≧50%: Subjects without Response (percentage): (83%)
ITT, Double Blind Week 12
  HAMD-17 Remission (Score ≦7): Subjects with Remission (number): 20
  HAMD-17 Remission (Score ≦7): Subjects with Remission (percentage): (15%)
  HAMD-17 Remission (Score ≦7): Subjects without Remission (number): 113
  HAMD-17 Remission (Score ≦7): Subjects without Remission (percentage): (85%)
  HAMD-17 Remission (Score ≦10): Subjects with Remission (number): 40
  HAMD-17 Remission (Score ≦10): Subjects with Remission (percentage): (30%)
  HAMD-17 Remission (Score ≦10): Subjects without Remission (number): 93
  HAMD-17 Remission (Score ≦10): Subjects without Remission (percentage): (70%)
  HAMD-17 reduction from baseline ≧50%: Subjects with Response (number): 45
  HAMD-17 reduction from baseline ≧50%: Subjects with Response (percentage): (34%)
  HAMD-17 reduction from baseline ≧50%: Subjects without Response (number): 88
  HAMD-17 reduction from baseline ≧50%: Subjects without Response (percentage): (66%)
ITT, Double Blind Week 14
  HAMD-17 Remission (Score ≦7): Subjects with Remission (number): 37
  HAMD-17 Remission (Score ≦7): Subjects with Remission (percentage): (28%)
  HAMD-17 Remission (Score ≦7): Subjects without Remission (number): 96
  HAMD-17 Remission (Score ≦7): Subjects without Remission (percentage): (72%)
  HAMD-17 Remission (Score ≦10): Subjects with Remission (number): 60
  HAMD-17 Remission (Score ≦10): Subjects with Remission (percentage): (45%)
  HAMD-17 Remission (Score ≦10): Subjects without Remission (number): 73
  HAMD-17 Remission (Score ≦10): Subjects without Remission (percentage): (55%)
  HAMD-17 reduction from baseline ≧50%: Subjects with Response (number): 72
  HAMD-17 reduction from baseline ≧50%: Subjects with Response (percentage): (54%)
  HAMD-17 reduction from baseline ≧50%: Subjects without Response (number): 61
  HAMD-17 reduction from baseline ≧50%: Subjects without Response (percentage): (46%)
ITT, Double Blind Week 16
  HAMD-17 Remission (Score ≦7): Subjects with Remission (number): 52
  HAMD-17 Remission (Score ≦7): Subjects with Remission (percentage): (39%)
  HAMD-17 Remission (Score ≦7): Subjects without Remission (number): 81
  HAMD-17 Remission (Score ≦7): Subjects without Remission (percentage): (61%)
  HAMD-17 Remission (Score ≦10): Subjects with Remission (number): 83
  HAMD-17 Remission (Score ≦10): Subjects with Remission (percentage): (62%)
  HAMD-17 Remission (Score ≦10): Subjects without Remission (number): 50
  HAMD-17 Remission (Score ≦10): Subjects without Remission (percentage): (38%)
  HAMD-17 reduction from baseline ≧50%: Subjects with Response (number): 90
  HAMD-17 reduction from baseline ≧50%: Subjects with Response (percentage): (68%)
  HAMD-17 reduction from baseline ≧50%: Subjects without Response (number): 43
  HAMD-17 reduction from baseline ≧50%: Subjects without Response (percentage): (32%)
ITT, Double Blind Week 16 LOCF
  HAMD-17 total score, observed Mean: 9.8
  HAMD-17 total score, observed Median: 8.0
ITT, Double Blind Week 16 LOCF (change from Week 8)
  HAMD-17 Mean Difference between TC-5214 and Placebo: 6.00
[3]
  HAMD-17 Remission (Score ≦7): Subjects with Remission (number): 60
  HAMD-17 Remission (Score ≦7): Subjects with Remission (percentage): (45%)
  HAMD-17 Remission (Score ≦7): Subjects without Remission (number): 73
  HAMD-17 Remission (Score ≦7): Subjects without Remission (percentage): (55%)
  HAMD-17 Remission (Score ≦10): Subjects with Remission (number): 85
  HAMD-17 Remission (Score ≦10): Subjects with Remission (percentage): (64%)
  HAMD-17 Remission (Score ≦10): Subjects without Remission (number): 48
  HAMD-17 Remission (Score ≦10): Subjects without Remission (percentage): (36%)
  HAMD-17 reduction from baseline ≧50%: Subjects with Response (number): 89
  HAMD-17 reduction from baseline ≧50%: Subjects with Response (percentage): (67%)
  HAMD-17 reduction from baseline ≧50%: Subjects without Response (number): 44
  HAMD-17 reduction from baseline ≧50%: Subjects without Response (percentage): (33%)
[4]
  HAMD-17 total score, observed Mean: 9.4
  HAMD-17 total score, observed Median: 8.0
[5]
  HAMD-17 Adjusted Mean change: −0.70
  HAMD-17 Mean Difference between TC-5214 and Placebo: −0.13
ITT, Week 8 to Week 16 LOCF
  HAMD-17 Difference vs Placebo + CIT: −6.0
ITT, Weeks 10, 12, 14, and 16, result in words
  HAMD-17 total (raw) score change from baseline compared with placebo by week: statistically significant decreases (improvements)
